Experimental data from US20190256499A1, “SUBSTITUTED QUINOXALINE DERIVATIVES AS INHIBITORS OF PFKFB” (priority 2016, published 2019).
Values after ≈ are worked out from the molar mass of the structure shown. Where two headings read alike, the source gives them in different places.

Assays:
[1] = Microsomal stability (intrinsic clearance), human liver microsomes; type: in vitro ADME; design: microsomal CLint: dose or concentration left out as unconfirmed; conditions: for microsomal CLint: human, liver microsomes, pH 7.4, human liver microsomes
Text: (§1) A microsomal stability assay is used to measure in vitro clearance (Clint). The assay involves measuring the rate of disappearance of a compound due to its intrinsic attitude to be metabolized (“intrinsic” meaning that the disappearance is not affected by other properties like permeability, binding etc. that play a role when quantifying in vivo clearance). The microsomal stability (intrinsic clearance, Clint) and thus metabolic stability is generally given as μl/min/mg protein. It can be visualized as the volume of solution that 1 mg of microsomes is able to clear of the compound in one minute.
(§2) A Tecan Genesis workstation (RSP 150/8) was used for to perform the microsomal incubations. Analysis was carried out using a Waters ACQUITY UPLC system coupled to an ABSciex API3000 mass spectrometer. Data analysis was performed using Assay Explorer (Symyx).
(§3) Mobile phases: A=0.1% formic acid in water; B=acetonitrile
(§4) Flow rate: 0.750 mL/min; Detection: ESI, MRM; Injection: 10 μL; Column temperature: 50° C.
(§5) Potassium phosphate buffer: 0.05 M potassium phosphate buffer pH 7.4 containing 1 mM MgCl2 NADPH (nicotinamide adenine dinucleotide phosphate): 22.5 mg NADPH-Na4 in 1.8 ml potassium phosphate buffer Acetonitrile: 50 Vol % acetonitrile (1 volume acetonitrile, 1 volume water) DMSO: 20 Vol % DMSO in water Stock solution of 20 mg/ml human or mouse liver microsomes (protein)/ml in phosphate buffer Stock solution of 10 mM compound in 100% DMSO

[2] = target: T1, Human recombinant His-tagged PFKFB3 (Homo sapiens, UniProt Q16875); experiment: PFKFB3 IC50 determination assay (modified ADP-Glo in vitro kinase assay); type: biochemical; conditions: ATP 20 μM, fructose-6-phosphate 2 μM, 2 h, rt
T1 construct: His; made in house
Experimental: In vitro kinase assay used to determine IC50 values for tested inhibitors is based on a modified ADP-Glo™ system (Promega) and consists of two parts:
1. Kinase reaction—performed in optimized conditions. At this step PFKFB3 phosphorylates its substrate fructose-6-phosphate using ATP as a source of phosphate to produce fructose-2,6-bisphosphate and ADP. Reaction is performed at Km values for ATP and substrate using optimized buffer composition and time of the reaction. Human recombinant His-tagged PFKFB3 (PFKFB3 BATCH II SEC) with confirmed activity is produced and purified in-house. 2. Detection of ADP as a product of the reaction using ADP-Glo™ system. This part is conducted by using the commercially available kit ADP-Glo™ Kinase Assay (Promega, cat. No# V9103) according to manufacturer's instruction, modified by 5× dilutions of assay reagents (both ADP-Glo™ Reagent and Kinase Detection Solution). Reproducibility and reliability of this modification is confirmed in an optimization process.
Test compounds are dissolved in DMSO and then transferred to the V-bottom 96-well plate. For IC50 determination ten 10× serial dilutions starting from 100 μM are prepared.
Two mixes are prepared on ice: Mix 1—containing appropriate kinase amount in 2× reaction buffer (100 mM TRIS pH 8.0) and Mix 2—containing 2.31× concentrated substrate (Fructose-6-phosphate) and ATP in MilliQ water. 15 μL per well of Mix 1 is transferred to assay wells of 96-well white plate. Next, 2 μl of 15× concentrated test compound in DMSO is added to Mix 1 for 20 min pre-incubation, followed by addition of Mix 2 (13 μl/well). Total reaction volume is 30 μL per well. Samples are tested in duplicates. Final concentration of DMSO in the reaction is 6.7%. Conditions needed for performing PFKFB3 (PFKFB3 BATCH II SEC) in vitro kinase assay are given below:
This protocol is based on Technical Bulletin, ADP-Glo™ Kinase Assay (Promega) and is adapted to 96-well plate containing 30 μL reaction mixture:
30 μL of 5× diluted ADP-Glo™ Reagent is added to each well of 96-well plate containing 30 μL of reaction mixture. The plate is incubated for 90 minutes on a shaker at rt. 60 μL of 5× diluted Kinase Detection Solution is added to each well of 96-well plate containing 60 μL of the solution (ratio of kinase reaction volume to ADP-Glo™ Reagent volume to Kinase Detection Solution volume is maintained at 1:1:2). Plate is incubated for 40 minutes on a shaker at rt, protected from light. Luminescence is measured in the plate reader Synergy 2 (BioTek).
Luminescent readouts for compounds tested in 10 concentrations (routinely from 100 μM to […], […] serial dilutions) in duplicates, as well as for positive control, are first normalized to no-substrate negative control by its subtraction. In the next step, % of normalized positive control is calculated for each data point and plotted against test compound concentration:
% of control—percent of positive control normalized to no-substrate negative control Lumcpd—luminescence of test compound Lumneg—luminescence of no-substrate negative control Lumpos—luminescence of positive control
IC50 parameter is determined by the GraphPad Prism 5.0 software [log(inhibitor) vs. response—Variable slope (four parameters)].

[3] = Microsomal stability (intrinsic clearance), mouse liver microsomes; type: in vitro ADME; design: microsomal CLint: dose or concentration left out as unconfirmed; conditions: for microsomal CLint: mouse, liver microsomes, pH 7.4, mouse liver microsomes
Text: as §1, §2, §3, §4, §5

Kinetic solubility = type: physicochemical; conditions: phosphate buffer 20 mM pH 7.4, 2% DMSO, room temperature; for solubility kinetic at 120 min: phosphate buffer, pH 7.4, aqueous buffer, kinetic from dmso stock
Experimental: Kinetic solubility of compounds of the present invention were tested according the following procedure.
(a) Buffer Solution Phosphate Buffer 20 mM pH 7.4 is prepared using Sorensen Phosphate Buffer 0.2 M pH 7.4 (EMS) in a 1000 mL volumetric flask (b) 2% DMSO in Phosphate Buffer 20 mM pH 7.4 is prepared by using 1 mL Dimethylsulfoxide (Merck) and 49 ml Sorensen Phosphate Buffer 20 mM pH 7.4 (c) Acetonitrile/Methanole/Eluent A (1:1:2; v/v/v) is prepared by using 50 mL Acetonitrile (Merck), 50 mL Methanol (Merck) and 100 mL Eluent A (d) Eluent A is prepared by using 1 mL Formic Acid (Merck) and 999 mL Ultrapure water (e) Eluent B is prepared by using 1 mL Formic Acid (Merck) and 999 mL Acetonitrile (Merck) (f) Filtration plate: Millipore MultiScreen HTS HV (0.45 μm) 96 Well (Millipore)
98 μL buffer solution (a) is added into a well of a 96 well filtration plate (f). Then 2 μL of 10 mM test compound solution in DMSO (Remp tube) is added. The filtration plate is incubated at room temperature for 120 minutes while agitating at 250 rpm and centrifuged with the PP-Plate (g) as receiver plate below (2500 rpm, 3 min). The 50 μL of filtrate is taken from the receiver plate and mixed with 50 μL of 2% DMSO in buffer pH 7.4 solution (b) (dilution factor=2) in a HPLC Vial (i)+(j).
Standard is prepared by diluting 2 μL of the same 10 mM test compound solution (Remp tube) diluted with 198 μL Acetonitrile/Methanole/Eluent A (1:1:2; v/v/v) (c) to prepare a 100 μM standard solution in a HPLC Vial (i)+(j).
Column temperature: 37° C. Autosampler: room temperature (approx. 25° C.) Gradient programme: […]
Injection volume: 10 μL Wavelength: Suitable wavelength (maximum sensitivity) selected out of wavelength range of 190-400 nm using a DAD detector.
L [μg/mL]=(area sample*concentration standard*dilution factor sample)/(area standard*dilution factor standard)
S [mol/L]=[…] Calculation: […]

[4] = PFKFB IC50, human recombinant PFKFB3 25 nM
[5] = human recombinant PFKFB3 25 nM, read-out: PFKFB IC50

T1 sequence (Q16875 whole entry): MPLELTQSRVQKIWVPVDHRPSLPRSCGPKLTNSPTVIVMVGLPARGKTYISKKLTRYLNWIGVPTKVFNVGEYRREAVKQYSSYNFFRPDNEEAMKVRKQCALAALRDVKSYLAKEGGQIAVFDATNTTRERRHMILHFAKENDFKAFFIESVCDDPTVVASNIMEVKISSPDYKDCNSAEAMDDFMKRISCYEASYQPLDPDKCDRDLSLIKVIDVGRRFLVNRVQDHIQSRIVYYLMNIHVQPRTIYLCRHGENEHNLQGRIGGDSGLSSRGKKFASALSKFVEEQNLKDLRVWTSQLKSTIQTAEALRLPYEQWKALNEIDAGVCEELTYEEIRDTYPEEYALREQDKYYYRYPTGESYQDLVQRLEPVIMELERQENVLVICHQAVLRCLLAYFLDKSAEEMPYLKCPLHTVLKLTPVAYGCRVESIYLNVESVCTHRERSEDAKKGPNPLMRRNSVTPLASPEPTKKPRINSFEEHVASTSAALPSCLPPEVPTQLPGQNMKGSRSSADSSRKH

| Structure (SMILES) | microsomal CLint [1] [µL/min/mg] | IC50 [2, 4] [nM] | microsomal CLint [3] [µL/min/mg] | CLint Human ([1]; human liver microsomes) [μl/min/mg prot] | Kinetic solubility (Kinetic solubility; 120 minutes) [µM] | IC50 [2, 5] [nM] | CLint Mouse ([3]; mouse liver microsomes) [μl/min/mg prot] | solubility kinetic at 120 min (Kinetic solubility) [µM] |
| --- | --- | --- | --- | --- | --- | --- | --- | --- |
| COc1ccc(C(Nc2cc(-c3ccc4ccn(C)c4c3)c3nccnc3c2)c2cnnn2C)cn1 (racemic) [Comparative Example 1, [(6-Methoxy-pyridin-3-yl)-(3-methyl-3H-[1,2,3]triazol-4-yl)-methyl]-[8-(1-methyl-1H-indol-6-yl)-quinoxalin-6-yl]-amine, reference compound] | 163 | 25 | 188 |  |  |  |  |  |
| Cn1ccc2ccc(-c3cc(NC(c4cccnc4)c4ccc(=O)[nH]n4)cc4nccnc34)cc21 (single isomer, unassigned) [Example 3] |  |  |  | 61 | 64 | 180 | 92 |  |
| COc1ccc([C@H](Nc2cc(-c3ccc4ccn(C)c4c3)c3nccnc3c2)c2cccnc2)nn1 (single isomer, unassigned) [Example 6] | 174 |  | 134 |  |  | 900 |  | 18 (≈ 8.52 µg/mL) |
| Cn1cc([C@@H](Nc2cc(-c3ccc4ccn(C)c4c3)c3nccnc3c2)c2cnnn2C)cn1 (single isomer, unassigned) [Example 9] | 52 |  | 146 |  |  | 87 |  | 110 (≈ 49.4 µg/mL) |
| Cn1cc([C@@H](Nc2cc(-c3ccc4ccn(C)c4c3)c3nccnc3c2)c2cncn2C)cn1 (single isomer, unassigned) [Example 12] |  |  |  |  |  | 44 |  |  |
| Cn1cc([C@H](Nc2cc(-c3ccc4ccn(C)c4c3)c3nccnc3c2)c2nccn2C)cn1 (single isomer, unassigned) [Example 14] | 57 |  | 67 |  |  | 640 |  | 36 (≈ 16.1 µg/mL) |
| Cn1cc([C@@H](Nc2cc(-c3ccc4ccn(C)c4c3)c3nccnc3c2)c2nccn2C)cn1 (single isomer, unassigned) [Example 15] | 76 |  | 88 |  |  | 560 |  | 48 (≈ 21.5 µg/mL) |
| Cn1cc([C@@H](Nc2cc(-c3ccc4ccn(C)c4c3)c3nccnc3c2)c2cccnc2)cn1 (single isomer, unassigned) [Example 17] | 172 |  | 95 |  |  | 120 |  | 42 (≈ 18.7 µg/mL) |
| Cn1cc([C@H](Nc2cc(-c3ccc4ccn(C)c4c3)c3nccnc3c2)c2cccnc2)cn1 (single isomer, unassigned) [Example 18] | 142 |  | 148 |  |  | 6.5 |  | 39 (≈ 17.4 µg/mL) |
| CC(C)[C@@H](Nc1cc(-c2ccc3ccn(C)c3c2)c2nccnc2c1)c1cccnc1 (single isomer, unassigned) [Example 20] | > 500 |  | > 500 |  |  | 33 |  | 6 (≈ 2.45 µg/mL) |
| CC(C)[C@H](Nc1cc(-c2ccc3ccn(C)c3c2)c2nccnc2c1)c1cccnc1 (single isomer, unassigned) [Example 21] | 366 | 23 | 488 |  |  |  |  | 7 (≈ 2.85 µg/mL) |
| Cn1cc([C@@H](Nc2cc(-c3cnc4ccn(C)c4c3)c3nccnc3c2)c2cccnc2)cn1 (single isomer, unassigned) [Example 26] | 67 |  | 58 |  |  | 1100 |  | 192 (≈ 85.7 µg/mL) |
| Cn1cc([C@H](Nc2cc(-c3cnc4ccn(C)c4c3)c3nccnc3c2)c2cccnc2)cn1 (single isomer, unassigned) [Example 27] | 404 |  | 64 |  |  | 6300 |  | 161 (≈ 71.9 µg/mL) |
| Cn1ccc([C@@H](Nc2cc(-c3ccc4ccn(C)c4c3)c3nccnc3c2)c2cnnn2C)n1 (single isomer, unassigned) [Example 29] | 51 |  | 69 |  |  | 22 |  | 108 (≈ 48.5 µg/mL) |
| Cn1ccc([C@H](Nc2cc(-c3ccc4ccn(C)c4c3)c3nccnc3c2)c2cnnn2C)n1 (single isomer, unassigned) [Example 30] | 132 |  | 216 |  |  | 190 |  | 96 (≈ 43.2 µg/mL) |
| COc1ccc([C@H](Nc2cc(-c3ccc4ccn(C)c4c3)c3nccnc3c2)c2cnnn2C)cn1 [Comparative Example 2, N—[(S)-(6-methoxypyridin-3-yl)(1-methyl-1H-1,2,3-triazol-5-yl)methyl]-8-(1-methyl-1H-indol-6-yl)quinoxalin-6-amine, reference compound] | 113 |  | 134 |  |  | 3.5 |  | 22 (≈ 10.5 µg/mL) |
